From PMC9217999 (Targeted Oncology, 2022)
Marks after values point to notes of the source that are not given here.

Columns and labels:
[1] = test system: P-glycoprotein; settings: cited from earlier work
[2] = cited from earlier work
[3] = Days 1−21 of each 28-day cycle; cited from earlier work
[4] = test system: pediatric cancer cell lines; settings: ref Roche data on file; cited from earlier work
[5] = test system: relapsed/refractory solid tumors with known/expected MAPK pathway involvement; experiment: Investigator-assessed anti-tumor activity in iMATRIX-cobi; format: in vivo, human
[6] = test system: unresectable/metastatic BRAF V600E/K-mutated melanoma; settings: combined with vemurafenib versus vemurafenib plus placebo, p < 0.0001; cited from earlier work
[7] = adults, similar dose; cited from earlier work
[8] = test system: xenograft models of pediatric solid tumors; settings: ref Roche data on file; cited from earlier work
[9] = Dose escalation PN in NF1 (n = 12)

O=C(c1ccc(F)c(F)c1Nc1ccc(I)cc1F)N1CC(O)([C@@H]2CCCCN2)C1 [cobimetinib]
P-glycoprotein substrate [1]: substrate of P-glycoprotein | Mean accumulation ratio in adults [2]: 2.4 fold | Recommended Phase II dose (RP2D) in adults [3]: 60 mg/day | Cytotoxic effects [4]: Cytotoxic effects | Best overall response: CR ([5]; All LGG patients (n = 32)): 0 n (%) | Best overall response: Non-CR/Non-PD ([5]; All LGG patients (n = 32)): 1 (3) n (%) | Best overall response: Non-evaluable ([5]; All LGG patients (n = 32)): 1 (3) n (%) | Best overall response: Not available ([5]; All LGG patients (n = 32)): 2 (6) n (%) | Best overall response: ORR ([5]; All LGG patients (n = 32)): 3 (9) n (%) | Best overall response: PD ([5]; All LGG patients (n = 32)): 7 (22) n (%) | Best overall response: PR ([5]; All LGG patients (n = 32)): 3 (9) n (%) | Best overall response: SD ([5]; All LGG patients (n = 32)): 18 (56) n (%) | Best overall response: CR ([5]; Dose escalation LGG (n = 20)): 0 n (%) | Best overall response: Non-CR/Non-PD ([5]; Dose escalation LGG (n = 20)): 1 (5) n (%) | Best overall response: Non-evaluable ([5]; Dose escalation LGG (n = 20)): 0 n (%) | Best overall response: Not available ([5]; Dose escalation LGG (n = 20)): 2 (10) n (%) | Best overall response: ORR ([5]; Dose escalation LGG (n = 20)): 2 (10) n (%) | Best overall response: PD ([5]; Dose escalation LGG (n = 20)): 5 (25) n (%) | Best overall response: PR ([5]; Dose escalation LGG (n = 20)): 2 (10) n (%) | Best overall response: SD ([5]; Dose escalation LGG (n = 20)): 10 (50) n (%) | Best overall response: CR [5, 9]: 0 n (%) | Best overall response: Non-CR/Non-PD [5, 9]: 0 n (%) | Best overall response: Non-evaluable [5, 9]: 0 n (%) | Best overall response: Not available [5, 9]: 0 n (%) | Best overall response: ORR [5, 9]: 0 n (%) | Best overall response: PD [5, 9]: 0 n (%) | Best overall response: PR [5, 9]: 0 n (%) | Best overall response: SD [5, 9]: 12 (100) n (%) | Best overall response: CR ([5]; Expansion LGG (n = 12)): 0 n (%) | Best overall response: Minor response per RANO criteria ([5]; Expansion LGG (n = 12)): 1 (8)^a n (%) | Best overall response: Non-CR/Non-PD ([5]; Expansion LGG (n = 12)): 0 n (%) | Best overall response: Non-evaluable ([5]; Expansion LGG (n = 12)): 1 (8) n (%) | Best overall response: Not available ([5]; Expansion LGG (n = 12)): 0 n (%) | Best overall response: ORR ([5]; Expansion LGG (n = 12)): 1 (8) n (%) | Best overall response: PD ([5]; Expansion LGG (n = 12)): 2 (17) n (%) | Best overall response: PR ([5]; Expansion LGG (n = 12)): 1 (8) n (%) | Best overall response: SD ([5]; Expansion LGG (n = 12)): 8 (67) n (%) | Best overall response: CR ([5]; Overall population (n = 56)): 0 n (%) | Best overall response: Non-CR/Non-PD ([5]; Overall population (n = 56)): 1 (2) n (%) | Best overall response: Non-evaluable ([5]; Overall population (n = 56)): 2 (4) n (%) | Best overall response: Not available ([5]; Overall population (n = 56)): 4 (7) n (%) | Best overall response: ORR ([5]; Overall population (n = 56)): 3 (5) n (%) | Best overall response: PR ([5]; Overall population (n = 56)): 3 (5) n (%) | Best overall response: SD ([5]; Overall population (n = 56)): 33 (59) n (%) | Median DoR ([5]; in vivo): not reached | Median duration of stable disease ([5]; overall): 11.0 months | Non-evaluable ([5]; overall): 4% | Median OS ([5]; overall population): not reached | Overall response rate ([5]; overall, 3/56, all partial responses in LGG): 5.4% | Partial response (PR) ([5]; overall, 3/56 patients, all with LGG): 5% | Stable disease ([5]; overall, 33/56): 59% | Investigator-assessed progression-free survival (PFS) [6]: significantly improved | Objective response rate (ORR) [6]: significantly improved | Cobimetinib AUC lower in healthy subjects versus cancer patients [7]: 50% | Activity in xenograft models [8]: activity observed
